“And” between values parts separate entries of the source, which are not always exact repeats. Equal entries are not always repeated.
Species: Rattus norvegicus
Experiment: DrugMatrix - Regimen: Daily Repeat
Type: toxicity, organism-based, Sprague-Dawley
Design: regimen Daily Repeat, gender Male, age 6-8 weeks
Conditions: in vivo, vehicle 100 % SALINE
[1] = iv, 15 mg/kg, 72 h, tissue Plasma, dose level High, time 3 day
[2] = iv, 15 mg/kg, 120 h, tissue Blood, dose level High, time 5 day
[3] = iv, 15 mg/kg, 120 h, tissue Plasma, dose level High, time 5 day
[4] = sc, 0 mg/kg, 72 h, tissue Blood, route mini-PUMP - SUBCUTANEOUS, dose level Control, time 3 day
[5] = sc, 0 mg/kg, 72 h, tissue Plasma, route mini-PUMP - SUBCUTANEOUS, dose level Control, time 3 day
[6] = sc, 0 mg/kg, 120 h, tissue Blood, route mini-PUMP - SUBCUTANEOUS, dose level Control, time 5 day
[7] = sc, 0 mg/kg, 120 h, tissue Plasma, route mini-PUMP - SUBCUTANEOUS, dose level Control, time 5 day

SMILES: CC(C)NCC(O)c1ccc(O)c(O)c1 (stereo not given) [ISOPROTERENOL]
- POTASSIUM [1]: 6.86 MEQ/L
- SODIUM [1]: 146.03 MEQ/L
- TOTAL BILIRUBIN [1]: 0.13 mg/dL
- TOTAL PROTEIN [1]: 5.8 G/DL
- URIC ACID [1]: 1.53 mg/dL
- ABSOLUTE BASOPHIL [2]: 0 CELLS/uL
- ABSOLUTE EOSINOPHIL [2]: 89.33 CELLS/uL
- ABSOLUTE LYMPHOCYTE [2]: 14556.33 CELLS/uL
- ABSOLUTE MONOCYTE [2]: 270.67 CELLS/uL
- ABSOLUTE SEGMENTED NEUTROPHIL [2]: 850.33 CELLS/uL
- BASOPHIL [2]: 0%
- EOSINOPHIL [2]: 0.67%
- ERYTHROCYTE COUNT [2]: 5.8 x10E6/uL
- HEMATOCRIT [2]: 37.17%
- HEMOGLOBIN [2]: 13.6 G/DL
- LEUKOCYTE COUNT [2]: 15.77 x10E3/uL
- LYMPHOCYTE [2]: 92%
- MEAN CORPUSCULAR HEMOGLOBIN [2]: 23.53 pg
- MEAN CORPUSCULAR HEMOGLOBIN CONCENTRATION [2]: 36.7 G/DL
- MEAN CORPUSCULAR VOLUME [2]: 64.07 fL
- MONOCYTE [2]: 1.67%
- NEUTROPHIL [2]: 5.67%
- NUCLEATED RED BLOOD CELLS [2]: 0 /100WBC
- PLATELET COUNT [2]: 1301.33 x10E3/uL
- ALANINE AMINOTRANSFERASE [3]: 56 u/L
- ALBUMIN [3]: 4.03 G/DL
- ALKALINE PHOSPHATASE [3]: 369.67 u/L
- ASPARTATE AMINOTRANSFERASE [3]: 62.33 u/L
- BLOOD UREA NITROGEN [3]: 14.33 mg/dL
- CARBON DIOXIDE [3]: 30.33 mmol/L
- CHLORIDE [3]: 103.67 MEQ/L
- CHOLESTEROL [3]: 65.67 mg/dL
- CREATINE PHOSPHOKINASE [3]: 190.67 u/L
- CREATININE [3]: 0.23 mg/dL
- GLUCOSE [3]: 141 mg/dL
- LACTATE DEHYDROGENASE [3]: 80 u/L
- LIPASE [3]: 9 u/L
- PHOSPHORUS [3]: 11.63 mg/dL
- POTASSIUM [3]: 6.67 MEQ/L
- SODIUM [3]: 146.27 MEQ/L
- TOTAL BILIRUBIN [3]: 0.2 mg/dL
- TOTAL PROTEIN [3]: 6.13 G/DL
- URIC ACID [3]: 1.43 mg/dL
- ABSOLUTE SEGMENTED NEUTROPHIL [4]: 1658.33 CELLS/uL
- BASOPHIL [4]: 0.3% and 0%
- EOSINOPHIL [4]: 0.43% and 0.5%
- ERYTHROCYTE COUNT [4]: 6.91 x10E6/uL and 6.27 x10E6/uL
- HEMATOCRIT [4]: 45.43% and 36.95%
- HEMOGLOBIN [4]: 14.37 G/DL and 13.4 G/DL
- LEUKOCYTE COUNT [4]: 12.09 x10E3/uL and 16.38 x10E3/uL
- LYMPHOCYTE [4]: 81.73% and 87.17%
- MEAN CORPUSCULAR HEMOGLOBIN [4]: 20.8 pg and 21.42 pg
- MEAN CORPUSCULAR HEMOGLOBIN CONCENTRATION [4]: 31.67 G/DL and 36.27 G/DL
- MEAN CORPUSCULAR VOLUME [4]: 65.83 fL and 59.03 fL
- MONOCYTE [4]: 1.83% and 2%
- NEUTROPHIL [4]: 15.07% and 10.33%
- NUCLEATED RED BLOOD CELLS [4]: 0 /100WBC
- PLATELET COUNT [4]: 1299.67 x10E3/uL and 904.67 x10E3/uL
- ALANINE AMINOTRANSFERASE [5]: 34.33 u/L and 48.33 u/L
- ALBUMIN [5]: 3.83 G/DL and 3.82 G/DL
- ALKALINE PHOSPHATASE [5]: 333.67 u/L and 282.33 u/L
- ASPARTATE AMINOTRANSFERASE [5]: 68 u/L and 86.83 u/L
- BLOOD UREA NITROGEN [5]: 19.33 mg/dL and 20.17 mg/dL
- CARBON DIOXIDE [5]: 43 mmol/L and 34.67 mmol/L
- CHLORIDE [5]: 103.67 MEQ/L and 102 MEQ/L
- CHOLESTEROL [5]: 84.33 mg/dL and 71.5 mg/dL
- CREATINE PHOSPHOKINASE [5]: 334.33 u/L
- CREATININE [5]: 0.53 mg/dL and 0.2 mg/dL
- GLUCOSE [5]: 156.67 mg/dL and 136.83 mg/dL
- LACTATE DEHYDROGENASE [5]: 159 u/L
- PHOSPHORUS [5]: 9.8 mg/dL and 10.12 mg/dL
- POTASSIUM [5]: 5.93 MEQ/L and 5.92 MEQ/L
- SODIUM [5]: 146.33 MEQ/L and 147.8 MEQ/L
- TOTAL BILIRUBIN [5]: 0.37 mg/dL and 0.2 mg/dL
- TOTAL PROTEIN [5]: 6.4 G/DL and 6.05 G/DL
- URIC ACID [5]: 0.73 mg/dL and 1.4 mg/dL
- ABSOLUTE SEGMENTED NEUTROPHIL [6]: 3216.67 CELLS/uL
- BASOPHIL [6]: 0.2% and 0%
- EOSINOPHIL [6]: 0.33% and 0%
- ERYTHROCYTE COUNT [6]: 6.81 x10E6/uL and 6.11 x10E6/uL
- HEMATOCRIT [6]: 44.33% and 36.22%
- HEMOGLOBIN [6]: 13.77 G/DL and 13.18 G/DL
- LEUKOCYTE COUNT [6]: 11.2 x10E3/uL and 17.8 x10E3/uL
- LYMPHOCYTE [6]: 80.33% and 80.5%
- MEAN CORPUSCULAR HEMOGLOBIN [6]: 20.23 pg and 21.62 pg
- MEAN CORPUSCULAR HEMOGLOBIN CONCENTRATION [6]: 31.03 G/DL and 36.42 G/DL
- MEAN CORPUSCULAR VOLUME [6]: 65.1 fL and 59.37 fL
- MONOCYTE [6]: 2.1% and 1.83%
- NEUTROPHIL [6]: 16.43% and 17.67%
- NUCLEATED RED BLOOD CELLS [6]: 0 /100WBC
- PLATELET COUNT [6]: 1573.33 x10E3/uL and 1311 x10E3/uL
- ALANINE AMINOTRANSFERASE [7]: 38 u/L and 47 u/L
- ALBUMIN [7]: 3.87 G/DL and 3.83 G/DL
- ALKALINE PHOSPHATASE [7]: 303.67 u/L and 260.33 u/L
- ASPARTATE AMINOTRANSFERASE [7]: 72.67 u/L and 76.17 u/L
- BLOOD UREA NITROGEN [7]: 17.33 mg/dL and 14.67 mg/dL
- CARBON DIOXIDE [7]: 41.33 mmol/L and 31.33 mmol/L
- CHLORIDE [7]: 104.33 MEQ/L and 101.17 MEQ/L
- CHOLESTEROL [7]: 74.33 mg/dL and 75 mg/dL
- CREATINE PHOSPHOKINASE [7]: 286.67 u/L
- CREATININE [7]: 0.47 mg/dL and 0.16 mg/dL
- GLUCOSE [7]: 152.33 mg/dL and 152.67 mg/dL
- LACTATE DEHYDROGENASE [7]: 147.33 u/L
- PHOSPHORUS [7]: 10 mg/dL and 10.97 mg/dL
- POTASSIUM [7]: 6.4 MEQ/L and 6 MEQ/L
- SODIUM [7]: 146 MEQ/L and 145.52 MEQ/L
- TOTAL BILIRUBIN [7]: 0.43 mg/dL and 0.17 mg/dL
- TOTAL PROTEIN [7]: 6.27 G/DL and 5.83 G/DL
- URIC ACID [7]: 0.83 mg/dL and 1.27 mg/dL
- ABSOLUTE SEGMENTED NEUTROPHIL (sc, 0 mg/kg, […], tissue Blood, route mini-PUMP - SUBCUTANEOUS, dose level Control, time 14 day): 2414 CELLS/uL

— ChEMBL document CHEMBL3885881, “DrugMatrix”
